Reference: patent US7566459B2, “Modified mycobacterium tuberculosis strains and uses thereof” (priority 2005, dated 2009)
No end group written: not given here. *: point of attachment. Palmitoyl = CCCCCCCCCCCCCCCC(=O)*

Legend:
human TLR2 = molecular target: T1, human TLR2 (Homo sapiens, UniProt O60603); format: cell-based
T1 construct: using an HEK293 cell line stably transfected with cDNA encoding human TLR2

BMDM = assay: cells; format: cell-based, mice; conditions: Mus musculus, read-out: inhibition of TNFα production (as a measure of protein synthesis)
[1] = test system: bone marrow derived macrophages (BMDM); format: cell-based, mice
RAW264.7 cells [2] = format: cell-based, murine
RAW264.7 cells [3] = format: cell-based, murine; remark: listed apart in the source

T1 sequence (O60603 21-784): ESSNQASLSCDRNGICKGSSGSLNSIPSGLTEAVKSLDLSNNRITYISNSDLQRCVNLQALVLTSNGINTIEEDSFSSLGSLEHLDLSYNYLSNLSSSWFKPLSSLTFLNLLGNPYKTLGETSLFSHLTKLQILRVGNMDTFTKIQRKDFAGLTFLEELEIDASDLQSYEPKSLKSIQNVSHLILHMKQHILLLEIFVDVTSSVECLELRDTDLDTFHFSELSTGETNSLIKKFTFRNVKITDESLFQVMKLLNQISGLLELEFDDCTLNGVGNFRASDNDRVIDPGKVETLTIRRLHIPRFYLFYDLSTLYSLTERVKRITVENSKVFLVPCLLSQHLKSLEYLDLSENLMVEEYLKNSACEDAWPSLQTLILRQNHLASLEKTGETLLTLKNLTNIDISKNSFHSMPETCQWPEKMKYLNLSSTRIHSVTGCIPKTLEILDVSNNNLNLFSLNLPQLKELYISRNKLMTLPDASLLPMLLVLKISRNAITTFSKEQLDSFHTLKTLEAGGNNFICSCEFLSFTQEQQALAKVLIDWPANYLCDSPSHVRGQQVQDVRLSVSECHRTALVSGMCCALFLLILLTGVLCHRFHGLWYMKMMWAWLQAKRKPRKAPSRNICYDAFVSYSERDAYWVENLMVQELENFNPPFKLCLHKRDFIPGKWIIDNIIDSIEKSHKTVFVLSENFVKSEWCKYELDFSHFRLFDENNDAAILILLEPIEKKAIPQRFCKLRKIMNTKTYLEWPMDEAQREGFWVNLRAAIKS

macrophage-activating lipopeptide-2
activation of 293-TLR2 cells / secretion of IL-8 (in words) (human TLR2): significant amounts of IL-8

(S)-[2,3-Bis(palmitoyloxy)-(2-RS)-propyl]-(R)-Cys-(S)-Ser-(S)-Lys4×3 CF3COOH (CSKKKK; not fully specified (residue 1); also: 3 CF3COOH salt) [Pam2CSK4, diacylated analog of Pam3CSK4]
activation of 293-TLR2 cells / secretion of IL-8 (in words) (human TLR2): significant amounts of IL-8

C[C@@H]1C[C@@H]([C@H](O)CC2CC(=O)NC(=O)C2)C(=O)[C@@H](C)C1 [cycloheximide]
inhibition at 0.5 µM (BMDM): ~90%
effect on ability of wild-type or ΔlspA Mycobacterium tuberculosis to inhibit IFNγ induction of CIITA gene expression [1]: prevented

(S)-[2,3-Bis(palmitoyloxy)-(2-RS)-propyl]-N-palmitoyl-(R)-Cys-(S)-Ser-(S)-Lys4-OH, 3HCl (Palmitoyl-CSKKKK-OH; not fully specified (residue 1); also: 3 HCl salt) [Pam3CSK4, synthetic triacylated hexapeptide, TLR2/TLR1 agonist]
IFNγ induction of class II transactivator (CIITA) mRNA (RAW264.7 cells [2]): potently inhibited
inhibition of IFNγ induction of surface MHC class II (RAW264.7 cells [3]): greater than 90%
